Values quoted from earlier work in the PKSmart pharmacokinetics tables (Seal et al. 2025).
Where a SMILES comes first, the peptide text is derived from it.

Test: Lombardo, Berellini, Obach 2018, Drug Metab Dispos 46:1466, doi 10.1124/dmd.118.082966
Conditions: human; for MRT / clearance / half-life / Vd: in vivo, iv; for fraction unbound: plasma

SMILES	MRT [h]	clearance [mL/min/kg]	half-life [h]	fraction unbound	Vd [L/kg]
CN[C@@H]1[C@@H](O)[C@@H](O[C@@H]2[C@@H](O)[C@H](O[C@H]3O[C@H](CN)[C@@H](O)[C@H](O)[C@H]3O)[C@@H](N)C[C@H]2NC(=O)C(O)CN)OC[C@]1(C)O (stereo not given in full)	4.1	1.3	24	0.95	–
Cc1ccc(-n2nccn2)c(C(=O)N2CCN(c3nc4cc(Cl)ccc4o3)CC[C@H]2C)c1	13.8	0.84	10.4	0.05	0.69
CC(=O)Nc1c(I)c(NC(C)=O)c(I)c(C(=O)O)c1I	2.6	1.7	–	1	–
COC(=O)c1ccc2c(C(=Nc3ccc(N(C)C(=O)CN4CCN(C)CC4)cc3)c3ccccc3)c(O)[nH]c2c1	12.6	19.9	9.5	0.02	15
Cc1cc(Nc2cc(N3CCN(C)CC3)nc(Sc3ccc(NC(=O)C4CC4)cc3)n2)n[nH]1	4.5	18.4	8.4	–	5.1
CS(=O)(=O)OC[C@H](O)[C@@H](O)COS(C)(=O)=O	2	4.9	1.83	–	0.59
N#Cc1ccc(Cn2cncc2CN2CCN(c3cccc(Cl)c3)C(=O)C2)cc1	4.2	3.2	2.6	–	0.8
CC(C)[C@@H](CC[C@@H](C)[C@H]1CC[C@H]2[C@@H]3[C@H](O)C[C@H]4C[C@@H](NCCCNCCCCN)CC[C@]4(C)[C@H]3CC[C@]12C)OS(=O)(=O)O	3.2	1.2	9.5	–	0.23
CC(NC(=O)C(Cc1c[nH]c2ccccc12)NC(=O)C(N)Cc1cnc[nH]1)C(=O)NC(Cc1c[nH]c2ccccc12)C(=O)NC(Cc1ccccc1)C(=O)NC(CCCCN)C(N)=O (stereo not given) (H-HWAWFK-NH2; configuration not given here)	2.45	3.1	2.46	–	0.42
CNC1=Nc2ccc(Cl)cc2C(c2ccccc2)=[N+](O)C1	11	–	8.3	–	0.25
C[C@]12C[C@]3(O)O[C@@H](O1)[C@@]1(COC(=O)c4ccccc4)[C@@H]3C[C@]12O[C@@H]1O[C@H](CO)[C@@H](O)[C@H](O)[C@H]1O	–	–	–	0.77	–
O=P(O)(O)C(Sc1ccc(Cl)cc1)P(=O)(O)O	9.5	0.4	7.7	0.1	0.23
CCON=C(C(=O)NC1C(=O)N2C(C(=O)[O-])=C(Sc3nc(-c4cc[n+](C)cc4)cs3)CS[C@H]12)c1nsc(NP(=O)(O)O)n1 (stereo not given in full)	0.11	83.6	0.09	0.8	0.53
OCCN1C[C@H](O)[C@@H](O)[C@H](O)[C@H]1CO	2.7	1.7	2.3	–	0.28
Cn1c(CCCC(=O)O)nc2cc(N(CCCl)CCCl)ccc21	0.81	4.49	0.41	0.05	0.22
CCc1nc(N)nc(N)c1-c1ccc(Cl)cc1	140	0.052	140	0.095	0.43
Cc1nc2n(c(=O)c1CCN1CCC(c3noc4cc(F)ccc34)CC1)CCCC2O (stereo not given)	–	1.18	24.6	0.24	–
O=C1C[C@@H](c2ccccc2)Oc2cc(O)cc(O)c21	0.47	27	0.7	–	0.8
C[C@@H](Oc1cc(-n2cnc3ccc(CN4CCN(C)CC4)cc32)sc1C(N)=O)c1ccccc1C(F)(F)F	10	20	10.3	–	12
COc1cc(NC(C)CCCN)c2ncccc2c1 (stereo not given)	11	5.8	7.1	–	4
Cc1cccc(N2CC(CO)OC2=O)c1 (stereo not given)	2.3	11	1.6	0.49	1.5

SMILES	MRT [h]	clearance [mL/min/kg]	half-life [h]	fraction unbound	Vd [L/kg]
C[C@H]1O[C@@H](O[C@H]2[C@@H](O)C[C@H](O[C@H]3[C@@H](O)C[C@H](O[C@H]4CC[C@@]5(C)[C@H](CC[C@@H]6[C@@H]5CC[C@]5(C)[C@@H](C7=CC(=O)OC7)CC[C@]65O)C4)O[C@@H]3C)O[C@@H]2C)C[C@H](O)[C@@H]1O	170	0.043	–	0.066	0.44
CCNC(=O)CCC/C=C\C[C@@H]1[C@@H](/C=C\[C@@H](O)CCc2ccccc2)[C@H](O)C[C@@H]1O	–	25	0.45	0.12	0.67
CC[C@]1(O)C[C@H]2CN(CCc3c([nH]c4ccccc34)[C@@](C(=O)OC)(c3cc4c(cc3OC)N(C)[C@H]3[C@@](O)(C(N)=O)[C@H](O)[C@]5(CC)C=CCN6CC[C@]43[C@@H]65)C2)C1	38	2.2	35	–	5
COc1cc(CC(=O)NCC(=O)N(CCC(=O)O)Cc2ccc(OC)c(OC)c2)ccc1NC(=O)Nc1ccccc1C	0.38	11	1.6	–	0.25
CCCc1nn(C)c2c(=O)[nH]c(-c3cc(S(=O)(=O)N4CCN(C)CC4)ccc3OCC)nc12	2.5	–	2.2	–	1.36
CC(C)[N@+]1(C)[C@H]2CC[C@H]1C[C@H](OC(=O)C(c1ccccc1)C1CCCC1)C2 (stereo not given in full)	2.48	8.41	3.3	–	1.25
CN1CCN(C(c2ccccc2)c2ccccc2)CC1	15.5	14.5	13.5	–	16.5
C[C@H]1O[C@@H](O[C@H]2[C@@H](O)C[C@H](O[C@H]3[C@@H](O)C[C@H](O[C@H]4CC[C@@]5(C)[C@H](CC[C@@H]6[C@@H]5C[C@@H](O)[C@]5(C)[C@@H](C7=CC(=O)OC7)CC[C@]65O)C4)O[C@@H]3C)O[C@@H]2C)C[C@H](O)[C@@H]1O	40	1.7	38	–	4.1
C[C@]12CC[C@@H]3c4ccc([O-])cc4C[C@H](CCCCCCCCC[S+](O)CCCC(F)(F)C(F)(F)F)C3[C@@H]1CC[C@@H]2O (stereo not given in full)	5.86	11.8	16	0.01	4.15
O=C(NCCNCC(O)COc1ccc(O)cc1)N1CCOCC1 (stereo not given)	3.6	3	7.7	–	0.64
COc1ccc(CCN(C)CCCN2CCc3cc(OC)c(OC)cc3CC2=O)cc1OC	3.2	8.4	2.8	–	1.6
CN[C@@H]1[C@H](O[C@H]2[C@H](O[C@H]3[C@H](O)[C@@H](O)[C@H](NC(=N)N)[C@@H](O)[C@@H]3NC(=N)N)O[C@@H](C)[C@]2(O)C=O)O[C@@H](CO)[C@H](O)[C@H]1O	7.3	0.78	4.3	0.65	0.34
CC1(C)[C@@H](O[C@H]2OC(C(=O)O)[C@@H](O)[C@H](O)[C@H]2O[C@@H]2OC(C(=O)O)[C@@H](O)[C@H](O)[C@H]2O)CC[C@]2(C)C3C(=O)C=C4C5C[C@@](C)(C(=O)O)CC[C@]5(C)CC[C@]4(C)[C@@]3(C)CC[C@@H]12 (stereo not given in full)	7.83	0.13	8.83	–	0.06
CCCNc1nc(NCCC)nc(N(C)OC)n1	3.04	11.9	5.61	–	2.17
CC(CN1CCN(CCOCCO)CC1)CN1c2ccccc2Sc2ccccc21 (stereo not given)	4.16	16.3	3.11	–	4.06
CC(=O)[C@]1(O)Cc2c(O)c3c(c(O)c2[C@@H](O[C@H]2C[C@H](N4CC4)[C@H](OS(C)(=O)=O)[C@H](C)O2)C1)C(=O)c1ccccc1C3=O	2.09	23.5	7.33	0.006	2.95
CCCc1c(OCCCS(=O)(=O)c2ccc(C(=O)CCC(=O)O)cc2)ccc(C(C)=O)c1O	–	17.4	0.04	–	–
CCOc1nc2cccc(C(=O)O)c2n1Cc1ccc(-c2ccccc2-c2nnn[nH]2)cc1	5.9	0.37	9.7	0.002	0.13
O=C(O)C1=C(C[n+]2ccc(CCS(=O)(=O)[O-])cc2)CSC2C(NC(=O)C(NC(=O)c3[nH]cnc3C(=O)O)c3ccccc3)C(=O)N12 (stereo not given)	2.1	1.7	1.8	–	0.21
CCC[C@@H]1CC(C(=O)N[C@@H]([C@H]2O[C@H](SC)[C@H](O)[C@@H](O)[C@H]2O)[C@@H](C)O)N(C)C1 (stereo not given in full)	7.5	2.1	5.6	–	1
CC[C@@]1(O)C(=O)OCc2c1cc1n(c2=O)Cc2c-1nc1ccc(O)cc1c2[Si](C)(C)C(C)(C)C	1.3	6	1.4	–	0.47
